Test results taken from ChEMBL document CHEMBL1909294, “Translating clinical findings into knowledge in drug safety evaluation--drug induced liver injury prediction system (DILIps)” (PLoS Comput Biol, 2011).

Legend:
Hepatotoxicity [1] = tested on: Hepatotoxicity;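 as to HepSE bilirubinemia: bilirubinemia hepatic side effect score drawn from the DILIps training data, a prediction system for drug-induced liver injury; call rule not given here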;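 as to HepSE cholecystitis: Cholecystitis-related hepatic side effect score drawn from the DILIps (drug-induced liver injury prediction) training data set; call rule not given here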;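 as to HepSE cholelithiasis: hepatic side effect score for cholelithiasis, drawn from the DILIps training data for predicting drug-induced liver injury; call rule not given here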;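 as to HepSE cirrhosis: cirrhosis hepatic side effect score taken from the DILIps (drug-induced liver injury prediction) training set; call rule not given here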;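 as to HepSE elevated liver function tests: hepatic side effect score for raised liver function tests, as recorded in the DILIps training set used for predicting drug-induced liver injury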; as to HepSE hepatic failure: call rule not given here;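 as to HepSE hepatomegaly: hepatic side effect score for hepatomegaly, taken from the training set of the DILIps drug-induced liver injury prediction system; call rule not given here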
Hepatotoxicity [2] = tested on: Hepatotoxicity; remark: listed apart in the source;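 as to HepSE bilirubinemia: bilirubinemia hepatic side effect score drawn from the DILIps training data, a prediction system for drug-induced liver injury; call rule not given here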;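 as to HepSE cholecystitis: Cholecystitis-related hepatic side effect score drawn from the DILIps (drug-induced liver injury prediction) training data set; call rule not given here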;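 as to HepSE cholelithiasis: hepatic side effect score for cholelithiasis, drawn from the DILIps training data for predicting drug-induced liver injury; call rule not given here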;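 as to HepSE cirrhosis: cirrhosis hepatic side effect score taken from the DILIps (drug-induced liver injury prediction) training set; call rule not given here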;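 as to HepSE elevated liver function tests: hepatic side effect score for raised liver function tests, as recorded in the DILIps training set used for predicting drug-induced liver injury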; as to HepSE hepatic failure: call rule not given here
Hepatotoxicity [3] = tested on: Hepatotoxicity; remark: listed apart in the source;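 as to HepSE bilirubinemia: bilirubinemia hepatic side effect score drawn from the DILIps training data, a prediction system for drug-induced liver injury; call rule not given here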;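 as to HepSE cholecystitis: Cholecystitis-related hepatic side effect score drawn from the DILIps (drug-induced liver injury prediction) training data set; call rule not given here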;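 as to HepSE cholelithiasis: hepatic side effect score for cholelithiasis, drawn from the DILIps training data for predicting drug-induced liver injury; call rule not given here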;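 as to HepSE cirrhosis: cirrhosis hepatic side effect score taken from the DILIps (drug-induced liver injury prediction) training set; call rule not given here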;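 as to HepSE elevated liver function tests: hepatic side effect score for raised liver function tests, as recorded in the DILIps training set used for predicting drug-induced liver injury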; as to HepSE hepatic failure: call rule not given here
Hepatotoxicity [4] = tested on: Hepatotoxicity; remark: listed apart in the source;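 as to HepSE bilirubinemia: bilirubinemia hepatic side effect score drawn from the DILIps training data, a prediction system for drug-induced liver injury; call rule not given here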;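 as to HepSE cholecystitis: Cholecystitis-related hepatic side effect score drawn from the DILIps (drug-induced liver injury prediction) training data set; call rule not given here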;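 as to HepSE cholelithiasis: hepatic side effect score for cholelithiasis, drawn from the DILIps training data for predicting drug-induced liver injury; call rule not given here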;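 as to HepSE cirrhosis: cirrhosis hepatic side effect score taken from the DILIps (drug-induced liver injury prediction) training set; call rule not given here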;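 as to HepSE elevated liver function tests: hepatic side effect score for raised liver function tests, as recorded in the DILIps training set used for predicting drug-induced liver injury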; as to HepSE hepatic failure: call rule not given here
Hepatotoxicity [5] = tested on: Hepatotoxicity; remark: listed apart in the source; as to HepSE hepatic failure: call rule not given here
Hepatotoxicity [6] = tested on: Hepatotoxicity; remark: listed apart in the source; as to HepSE hepatic failure: call rule not given here
Hepatotoxicity [7] = tested on: Hepatotoxicity; remark: listed apart in the source
Hepatotoxicity [8] = tested on: Hepatotoxicity; remark: listed apart in the source
Hepatotoxicity [9] = tested on: Hepatotoxicity; remark: listed apart in the source
Hepatotoxicity [10] = tested on: Hepatotoxicity; remark: listed apart in the source
Hepatotoxicity [11] = tested on: Hepatotoxicity; remark: listed apart in the source
Hepatotoxicity [12] = tested on: Hepatotoxicity; remark: listed apart in the source
Hepatotoxicity [13] = tested on: Hepatotoxicity; remark: listed apart in the source
Hepatotoxicity [14] = tested on: Hepatotoxicity; remark: listed apart in the source

| Compound | HepSE_bilirubinemia (Hepatotoxicity [1]) | HepSE_cholecystitis (Hepatotoxicity [2]) | HepSE_cholelithiasis (Hepatotoxicity [3]) | HepSE_cirrhosis (Hepatotoxicity [4]) | HepSE_elevated liver function tests (Hepatotoxicity [5]) | HepSE_hepatic failure (Hepatotoxicity [6]) | HepSE_hepatic necrosis (Hepatotoxicity [7]) | HepSE_hepatitis (Hepatotoxicity [8]) | HepSE_hepatomegaly (Hepatotoxicity [9]) | HepSE_jaundice (Hepatotoxicity [10]) | HepSE_liver disease (Hepatotoxicity [11]) | HepSE_liver fatty (Hepatotoxicity [12]) | HepSE_liver function tests abnormal (Hepatotoxicity [13]) | HepSE_Combined Scores (Hepatotoxicity [14]) |
| --- | --- | --- | --- | --- | --- | --- | --- | --- | --- | --- | --- | --- | --- | --- |
| Nc1nc(F)nc2c1ncn2[C@@H]1O[C@H](CO)[C@@H](O)[C@@H]1O [FLUDARABINE] | 0 | 0 | 1 | 0 | 0 | 1 | 0 | 0 | 0 | 0 | 0 | 0 | 0 | 2 |
| C[C@]12CCC(=O)C=C1CC[C@H]1[C@@H]3CC[C@](O)(C(=O)CO)[C@@]3(C)C[C@H](O)[C@@]12F [FLUDROCORTISONE] | 0 | 0 | 0 | 0 | 0 | 0 | 0 | 0 | 0 | 0 | 0 | 0 | 0 | 0 |
| CCOC(=O)c1ncn2c1CN(C)C(=O)c1cc(F)ccc1-2 [FLUMAZENIL] | 0 | 0 | 0 | 0 | 0 | 0 | 0 | 0 | 0 | 0 | 0 | 0 | 0 | 0 |
| C[C@@H]1C[C@H]2[C@@H]3C[C@H](F)C4=CC(=O)C=C[C@]4(C)[C@@]3(F)[C@@H](O)C[C@]2(C)[C@@]1(O)C(=O)CO [FLUMETHASONE] | 0 | 0 | 0 | 0 | 0 | 0 | 0 | 0 | 0 | 0 | 0 | 0 | 0 | 0 |
| CC1(C)O[C@@H]2C[C@H]3[C@@H]4C[C@H](F)C5=CC(=O)C=C[C@]5(C)[C@H]4[C@@H](O)C[C@]3(C)[C@]2(C(=O)CO)O1 [FLUNISOLIDE] | 0 | 0 | 0 | 0 | 0 | 0 | 0 | 0 | 0 | 0 | 0 | 0 | 0 | 0 |
| CC1(C)O[C@@H]2C[C@H]3[C@@H]4C[C@H](F)C5=CC(=O)C=C[C@]5(C)[C@@]4(F)[C@@H](O)C[C@]3(C)[C@]2(C(=O)CO)O1 [FLUOCINOLONE ACETONIDE] | 0 | 0 | 0 | 0 | 0 | 0 | 0 | 0 | 0 | 0 | 0 | 0 | 0 | 0 |
| CC(=O)OCC(=O)[C@@]12OC(C)(C)O[C@@H]1C[C@H]1[C@@H]3C[C@H](F)C4=CC(=O)C=C[C@]4(C)[C@@]3(F)[C@@H](O)C[C@@]12C [FLUOCINONIDE] | 0 | 0 | 0 | 0 | 0 | 0 | 0 | 0 | 0 | 0 | 0 | 0 | 0 | 0 |
| O=C1OC2(c3ccc(O)cc3Oc3cc(O)ccc32)c2ccccc21 [FLUORESCEIN] | 0 | 0 | 0 | 0 | 0 | 0 | 0 | 0 | 0 | 0 | 0 | 0 | 0 | 0 |
| CC(=O)[C@@]1(O)CC[C@H]2[C@@H]3C[C@H](C)C4=CC(=O)C=C[C@]4(C)[C@@]3(F)[C@@H](O)C[C@@]21C [FLUOROMETHOLONE] | 0 | 0 | 0 | 0 | 0 | 0 | 0 | 0 | 0 | 0 | 0 | 0 | 0 | 0 |
| O=c1[nH]cc(F)c(=O)[nH]1 [FLUOROURACIL] | 0 | 0 | 0 | 0 | 0 | 0 | 0 | 0 | 0 | 0 | 0 | 0 | 0 | 0 |
| CNCCC(Oc1ccc(C(F)(F)F)cc1)c1ccccc1 (stereo not drawn) [FLUOXETINE] | 0 | 1 | 1 | 0 | 0 | 1 | 0 | 1 | 1 | 1 | 0 | 1 | 1 | 8 |
| C[C@]1(O)CC[C@H]2[C@@H]3CCC4=CC(=O)CC[C@]4(C)[C@@]3(F)[C@@H](O)C[C@@]21C [FLUOXYMESTERONE] | 0 | 0 | 0 | 0 | 0 | 0 | 0 | 0 | 0 | 1 | 0 | 0 | 0 | 1 |
| OCCN1CCN(CCCN2c3ccccc3Sc3ccc(C(F)(F)F)cc32)CC1 [FLUPHENAZINE] | 0 | 0 | 0 | 0 | 0 | 0 | 0 | 1 | 0 | 1 | 0 | 0 | 0 | 2 |
| CC1(C)O[C@@H]2C[C@H]3[C@@H]4C[C@H](F)C5=CC(=O)CC[C@]5(C)[C@H]4[C@@H](O)C[C@]3(C)[C@]2(C(=O)CO)O1 [FLURANDRENOLIDE] | 0 | 0 | 0 | 0 | 0 | 0 | 0 | 0 | 0 | 0 | 0 | 0 | 0 | 0 |
| CCN(CC)CCN1C(=O)CN=C(c2ccccc2F)c2cc(Cl)ccc21 [FLURAZEPAM] | 0 | 0 | 0 | 0 | 0 | 0 | 0 | 0 | 0 | 0 | 0 | 0 | 0 | 0 |
| CC(C(=O)O)c1ccc(-c2ccccc2)c(F)c1 (stereo not drawn) [FLURBIPROFEN] | 0 | 1 | 0 | 0 | 0 | 1 | 0 | 1 | 0 | 1 | 0 | 0 | 0 | 4 |
| CC(C)C(=O)Nc1ccc([N+](=O)[O-])c(C(F)(F)F)c1 [FLUTAMIDE] | 0 | 0 | 0 | 0 | 0 | 0 | 1 | 1 | 0 | 1 | 0 | 0 | 0 | 3 |
